According to ChEMBL document CHEMBL3817823 (J Med Chem, 2016):
Active and inactive are the calls of the source. The calls are words filed in the database; no cut-off is given here.

Assays:
KYSE-150 cell line = experiment: Induction of apoptosis in human KYSE-150 cells assessed as caspase 3/7 activation up to 20 uM after 2 days by […]; format: functional, cell-based
[1] = biological target: Histone-lysine N-methyltransferase SUV39H1 (Homo sapiens) (UniProt O43463); experiment: Inhibition of SUV39H1 (unknown origin) at 1 to 50 uM by scintillation proximity assay
Sequence of Histone-lysine N-methyltransferase SUV39H1 (Homo sapiens) (O43463 whole entry): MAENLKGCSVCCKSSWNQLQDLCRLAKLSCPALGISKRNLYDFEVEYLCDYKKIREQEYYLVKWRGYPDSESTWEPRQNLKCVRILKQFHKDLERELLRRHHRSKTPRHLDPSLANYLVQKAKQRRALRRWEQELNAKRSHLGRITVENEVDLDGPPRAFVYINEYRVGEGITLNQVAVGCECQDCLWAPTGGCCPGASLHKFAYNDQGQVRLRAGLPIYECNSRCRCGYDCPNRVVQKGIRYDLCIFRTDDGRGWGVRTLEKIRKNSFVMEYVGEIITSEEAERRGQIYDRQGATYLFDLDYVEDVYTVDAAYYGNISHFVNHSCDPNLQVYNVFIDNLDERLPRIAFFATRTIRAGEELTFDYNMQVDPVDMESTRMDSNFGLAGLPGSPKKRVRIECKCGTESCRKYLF

[2] = biological target: Protein arginine N-methyltransferase 7 (Homo sapiens) (UniProt Q9NVM4); experiment: Inhibition of PRMT7 (unknown origin) at 1 to 50 uM by scintillation proximity assay
Sequence of Protein arginine N-methyltransferase 7 (Homo sapiens) (Q9NVM4 whole entry): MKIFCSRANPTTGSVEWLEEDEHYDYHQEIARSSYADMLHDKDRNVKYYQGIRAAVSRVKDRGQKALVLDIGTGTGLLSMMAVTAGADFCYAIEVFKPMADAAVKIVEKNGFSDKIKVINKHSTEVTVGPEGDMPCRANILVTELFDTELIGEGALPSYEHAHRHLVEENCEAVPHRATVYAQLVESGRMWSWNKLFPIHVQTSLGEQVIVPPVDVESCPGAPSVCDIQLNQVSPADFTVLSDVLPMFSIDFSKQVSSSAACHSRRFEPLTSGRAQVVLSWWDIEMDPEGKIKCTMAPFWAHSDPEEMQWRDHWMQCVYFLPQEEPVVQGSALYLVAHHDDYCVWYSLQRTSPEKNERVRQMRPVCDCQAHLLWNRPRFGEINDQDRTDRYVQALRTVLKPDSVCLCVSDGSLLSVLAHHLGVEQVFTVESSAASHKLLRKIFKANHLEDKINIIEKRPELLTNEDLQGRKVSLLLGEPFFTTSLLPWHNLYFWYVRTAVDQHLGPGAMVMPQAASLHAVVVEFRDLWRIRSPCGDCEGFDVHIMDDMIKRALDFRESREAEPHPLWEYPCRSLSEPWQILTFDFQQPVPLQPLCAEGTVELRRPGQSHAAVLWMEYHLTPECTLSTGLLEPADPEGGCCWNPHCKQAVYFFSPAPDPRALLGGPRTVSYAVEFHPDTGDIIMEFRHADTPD

[3] = biological target: RNA 5'-monophosphate methyltransferase (Homo sapiens) (UniProt Q7Z5W3); experiment: Inhibition of BCDIN3D (unknown origin) at 1 to 50 uM by scintillation proximity assay
Sequence of RNA 5'-monophosphate methyltransferase (Homo sapiens) (Q7Z5W3 whole entry): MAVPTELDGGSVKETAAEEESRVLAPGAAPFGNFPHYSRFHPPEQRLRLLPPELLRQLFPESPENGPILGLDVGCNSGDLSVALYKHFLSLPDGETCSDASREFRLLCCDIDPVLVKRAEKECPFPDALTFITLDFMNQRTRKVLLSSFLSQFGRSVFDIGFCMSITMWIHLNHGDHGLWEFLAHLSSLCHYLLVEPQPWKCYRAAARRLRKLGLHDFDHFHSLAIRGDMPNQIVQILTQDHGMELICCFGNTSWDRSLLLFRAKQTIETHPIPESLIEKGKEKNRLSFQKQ

[4] = Effect on p53 protein levels in HEK293T cells by Western blot analysis; format: ADME, cell-based; conditions: human, hek-293t
[5] = biological target: Histone-lysine N-methyltransferase SETDB1 (Homo sapiens) (UniProt Q15047); experiment: Inhibition of SETDB1 (unknown origin) at 1 to 50 uM by scintillation proximity assay

## CCN(C(=O)CO)[C@H]1CN(/C(=N\C#N)Nc2cccc(OC(F)F)c2)N=C1c1ccc(Cl)c(Cl)c1
KYSE-150 cell line
  Activity: inactive
[1]
  inhibition: inactive
[2]
  inhibition: inactive
[3]
  inhibition: inactive
[4]
  Activity: Non-toxic
[5]
  inhibition: inactive
